Data published in publication PMC6474902, “Examination of novel 4-aminoquinoline derivatives designed and synthesized by a hybrid pharmacophore approach to enhance their anticancer activities” (Scientific Reports, 2019).
“Also recorded” adds a separate entry of the source. Like-named read-outs stand apart in the source and are kept apart here.

How the values were obtained:
184B5 = experiment: SRB antiproliferative/antigrowth assay, non-cancer cells; assay type: cell-based, human; details: read-out: GI50 184B5
Protocol: (§1) The antigrowth effects of 4-piperazinylquinoline sulfonyl analogs on human breast tumor cells was initially evaluated using MDA-MB468 (a PTEN defective, EGFR positive breast adenocarcioma), MDA-MB231 (p53 and pRB mutated, triple-negative breast carcinoma), and MCF7 (p53+/−, invasive ductal breast carcinoma) cell lines. In addition, the cytotoxicity of all the compounds was also evaluated with the 184B5 and MCF10A non-cancer immortalized breast epithelial cell lines, to determine if these newly synthesized compounds have differential cytotoxic effects on cancer and non-cancer cells. The panel of three breast cancer cell lines with different genetic back ground and the well-studied two non-cancer immortalized breast cell lines would provide insights into the efficacy and toxicity of the test compounds in the different genetic background and at different stages of tumor development. The dose response of each cell line was established by determining the number of viable cells after 48 h of continuous drug treatment against seven different concentrations (100 µM to 0.0064 µM) of each compound. The reading of sulphorodamine B (SRB) staining is known to accurately reflect the level of total cellular macromolecules/cell growth/proliferation[6],[23]. […] The data for CQ and cisplatin were included as references. […] The differences in the GI50 values may be attributable to such factors as the nature of the sulfonyl group and the halogen substitution on the 7th position of the 4-piperazinylquinoline ring system, and the genetic and biochemical background of the cell lines.
(§2) Antiproliferative/antigrowth effects were determined by a SRB-based protocol[6],[23]. For a typical screening experiment, 5,000–10,000 cells were inoculated into 100 µL medium per well of a 96-well microtiter plate as described previously. Briefly, after the inoculation, the microtiter plate was incubated at 37 °C, 5% CO2, 95% air and 100% relative humidity for 24 h, prior to addition of experimental drugs. Some of the sample wells were fixed with 25 µL of 50% tricholoroacetic acid (TCA) as a control of the cell population for each cell line at the time of drug addition (Tz). An aliquot of the frozen stock was thawed and diluted to a desired final maximum test-concentration with complete medium. Two to ten-fold serial dilutions were made to provide a total of seven drug concentrations (and a control [C]). Following addition of drugs, the culture plate was incubated for additional 48 h. Cells were fixed in situ by slowly adding 25 µL of ice-cold 50% (w/v) TCA (final concentration, 10% TCA), and were then incubated for 60 min at 4 °C. The supernatant was discarded, and the plate was washed five times with tap water, followed by air-dry. 50 µL of SRB solution at 0.4% (w/v) in 1% acetic acid was added to each well, and the plate was incubated for >30 min at room temperature. Unbound SRB was removed by five washes with tap water, followed by air-drying. The cells “stained” with SRB were solubilized with 10 mM trizma base, and the absorbance was read on an automated plate reader at a wavelength of 515–564 nm. The relative growth rate (%) was calculated for each of the compound concentrations according to the following formula: (Ti−Tz)/(C−Tz)×100
(§3) In the formula, time zero (Tz), control growth (C), and OD for different concentration of tested compounds (Ti). The GI50 for each compound was obtained from a non-linear Sigmoidal dose-response (variable slope) curve which is fitted by GraphPad Prism v.4.03 software. Values were calculated for each of these parameters if the level of activity was reached. However, if the effect was not reached or was exceeded, the value for that parameter was expressed as greater or less than the maximum or minimum concentration tested.

MCF10A = experiment: as above; assay type: cell-based, human; details: SRB, 48 h post-treatment, non-cancer breast epithelial cells, read-out: GI50 MCF10A
Protocol: as §1, §2, §3

[1] = tested on: MDA-MB231, MDA-MB468, MCF7 breast cancer cells; 184B5 and MCF10A non-cancer breast cells; experiment: SRB assay, panel of breast cancer and non-cancer breast cell lines; assay type: cell-based, human; details: judged from GI50 values of Table 1
Protocol: as §1, §2, §3

MDA-MB231 = experiment: SRB antiproliferative/antigrowth assay; assay type: cell-based, human; details: SRB, 48 h post-treatment, mean of triplicates of at least two experiments, read-out: GI50 MB231
Protocol: as §1, §2, §3

MCF7 = experiment: SRB antiproliferative/antigrowth assay; assay type: cell-based, human; details: for GI50: SRB, 48 h post-treatment, mean of triplicates of at least two experiments, read-out: GI50 MCF7
Protocol: as §1, §2, §3

MDA-MB468 = experiment: SRB antiproliferative/antigrowth assay; assay type: cell-based, human; details: SRB, 48 h post-treatment, mean of triplicates of at least two experiments, read-out: GI50 MB468
Protocol: as §1, §2, §3

[2] = Homo sapiens, 184B5, 48 h, SRB, 48 h post-treatment, non-cancer breast epithelial cells

Structure (SMILES) | GI50 (184B5; SRB, 48 h post-treatment, non-cancer breast epithelial cells) [µM] | GI50 (MCF10A) [µM] | preferential antigrowth effect on cancer versus non-cancer cells (in words) [1] | GI50 (MDA-MB231) [µM] | GI50 (MCF7) [µM] | GI50 (MDA-MB468) [µM] | GI50 (184B5; [2]) [µM] | GI50 (MCF10A; Homo sapiens, MCF-10A, 48 h) [µM] | melting point [°C] | GI50 (MDA-MB231; Homo sapiens, MDA-MB-231, 48 h) [µM] | GI50 (MCF7; Homo sapiens, MCF7, 48 h) [µM] | GI50 (MDA-MB468; Homo sapiens, MDA-MB-468, 48 h) [µM] | GI50 (184B5; Homo sapiens, 184B5, 48 h) [µM] | GI50 (MCF10A; Homo sapiens, MCF-10A) [µM] | GI50 (MDA-MB231; Homo sapiens, MDA-MB-231) [µM] | GI50 (MCF7; Homo sapiens, MCF7) [µM] | GI50 (MDA-MB468; Homo sapiens, MDA-MB-468) [µM] | increase in potency against MCF7 compared to CQ (MCF7; ratio of GI50 values) [fold]
N.N.[Cl][Pt][Cl] [Cisplatin, reference compound] | 25.5 ± 0.4 | 51.5 ± 0.9 | similar | 23.7 ± 0.2 | 25.8 ± 0.4 | 31 ± 0.5 |  |  |  |  |  |  |  |  |  |  |  | 
Cc1ccc(S(=O)(=O)N2CCN(c3ccnc4cc(Cl)ccc34)CC2)cc1 [Compound 8, 7-Chloro-4-(4-tosylpiperazin-1-yl)quinoline] |  |  | effective and preferential antigrowth effects on cancer cells; also recorded: stronger antigrowth/antiproliferation activity against cancer cells than non-cancer cells |  |  |  | 47.5 ± 0.9 | 44.4 ± 0.7 | 190 to 192 | 34.1 ± 0.7 | 16.1 ± 0.6 | 28.8 ± 0.7 |  |  |  |  |  | 
CN(C)c1cccc2c(S(=O)(=O)N3CCN(c4ccnc5cc(Cl)ccc45)CC3)cccc12 [Compound 14, 5-(4-(7-Chloroquinolin-4-yl)piperazin-1-ylsulfonyl)-N,N-dimethylnaphthalen-1-amine] |  |  | effective and preferential antigrowth effects on cancer cells; also recorded: stronger antigrowth/antiproliferation activity against cancer cells than non-cancer cells |  |  |  | 28.3 ± 0.3 | 32.2 ± 0.3 | 145 to 147 | 35 ± 0.8 | 22.3 ± 0.2 | 27.5 ± 0.7 |  |  |  |  |  | 
CS(=O)(=O)N1CCN(c2ccnc3cc(C(F)(F)F)ccc23)CC1 [Compound 16, 4-(4-Methanesulfonyl-piperazin-1-yl)-7-trifluoromethyl-quinoline] |  |  | effective and preferential antigrowth effects on cancer cells; also recorded: stronger antigrowth/antiproliferation activity against cancer cells than non-cancer cells |  |  |  | 93.9 ± 0.9 | 75.8 ± 0.8 | 116 to 118 | 44.4 ± 0.9 | 25.6 ± 0.3 | 28.6 ± 0.7 |  |  |  |  |  | 
O=[N+]([O-])c1cccc(S(=O)(=O)N2CCN(c3ccnc4cc(C(F)(F)F)ccc34)CC2)c1 [Compound 21, 4-[4-(3-Nitro-benzenesulfonyl)-piperazin-1-yl]-7-trifluoromethyl-quinoline] |  |  | effective and preferential antigrowth effects on cancer cells; also recorded: stronger antigrowth/antiproliferation activity against cancer cells than non-cancer cells |  |  |  | 17.7 ± 0.2 | 15.4 ± 0.1 | 199 to 201 | 32.2 ± 0.6 | 9.4 ± 0.3 | 18.6 ± 0.6 |  |  |  |  |  | 
O=[N+]([O-])c1ccc(S(=O)(=O)N2CCN(c3ccnc4cc(C(F)(F)F)ccc34)CC2)c([N+](=O)[O-])c1 [Compound 22, 4-[4-(2,4-Dinitro-benzenesulfonyl)-piperazin-1-yl]-7-trifluoromethyl-quinoline] |  |  | effective and preferential antigrowth effects on cancer cells; also recorded: stronger antigrowth/antiproliferation activity against cancer cells than non-cancer cells |  |  |  |  |  | 178 to 180 |  |  |  | 37.8 ± 0.4 | 35.4 ± 0.5 | 24.3 ± 0.6 | 10.8 ± 0.1 | 19.2 ± 0.6 | 
Cc1ccc(S(=O)(=O)NCCCNc2ccnc3cc(Cl)ccc23)cc1 [Compound 26, N-[3-(7-Chloro-quinolin-4-ylamino)-propyl]-4-methyl-benzenesulfonamide] |  |  | effective and preferential antigrowth effects on cancer cells; also recorded: stronger antigrowth/antiproliferation activity against cancer cells than non-cancer cells |  |  |  | 9.6 ± 0.5 | 12.2 ± 0.6 |  | 6.2 ± 0.5 | 5.2 ± 0.5 | 5.8 ± 0.4 |  |  |  |  |  | 
CN(C)c1cccc2c(S(=O)(=O)NCCCNc3ccnc4cc(Cl)ccc34)cccc12 [Compound 32, 5-Dimethylamino-naphthalene-1-sulfonic acid [3-(7-chloro-quinolin-4-ylamino)-propyl]-amide] |  |  | loss of preferential antigrowth effects on cancer cells |  | 2.5 ± 0.1 |  | 1.7 ± 0.1 | 2.6 ± 0.1 | 190 to 192 | 12.7 ± 1 | 2.45 | 4.6 ± 0.4 |  |  |  |  |  | 15.7
O=[N+]([O-])c1cccc(S(=O)(=O)NCCCNc2ccnc3cc(C(F)(F)F)ccc23)c1 [Compound 39, 3-Nitro-N-[3-(7-trifluoromethyl-quinolin-4-ylamino)-propyl]-benzenesulfonamide] |  |  |  |  |  |  | 8 ± 0.8 | 10.6 ± 0.9 | 98 to 100 | 15.7 ± 1 | 8.3 ± 0.5 | 9.1 ± 0.6 |  |  |  |  |  | 
CN(C)c1cccc2c(S(=O)(=O)NCCCNc3ccnc4cc(C(F)(F)F)ccc34)cccc12 [Compound 41, 5-Dimethylamino-naphthalene-1-sulfonic acid [3-(7-trifluoromethyl-quinolin-4-ylamino)-propyl]-amide] |  |  |  |  |  |  | 3.7 ± 0.2 | 6.5 ± 0.3 | 199 to 201 | 14.2 ± 1 | 7.7 ± 0.6 | 9.7 ± 0.3 |  |  |  |  |  | 
